Experimental data as given in patent US20240059703A1 (AMGEN INC., priority 2021, published 2024).

Legend:
[1] = system: A549 (human lung carcinoma) cells; assay: Cell Viability Assay (CellTiter-Glo), A549; format: cell-based
Outline: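 After a 72 h exposure to serial compound dilutions at 37° C, luminescent ATP content was measured with CellTiter-Glo. The cells were A549 or MIA PaCa-2, seeded at 1.67E+04 cells/mL in RPMI 1640 with 10% serum. Signals were normalized to DMSO controls and IC50 fitted with a 4-parameter logistic model.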

KRAS G12C = KRAS G12C (Homo sapiens (Human), UniProt P01116, C118A/G12C); assay: 2 h coupled exchange assay; format: biochemical; conditions: Avg 2 h Coupled exchange IC50, 2 h compound pre-incubation
Experimental: The term “2 h coupled exchange assay” or “20 h coupled exchange assay” as used herein refers to the assay described in the Section entitled “BIOLOGICAL EVALUATION.”

[2] = system: MIA PaCa-2 (human pancreatic carcinoma) cells; assay: Cell Viability Assay (CellTiter-Glo), MIA PaCa-2; format: cell-based
Experimental: Serially-diluted compound or DMSO was added to the cells, and plates were incubated at 37° C., 5% CO2 for 72 h. Cell viability was measured using a CellTiter-Glo® Luminescent Cell Viability Assay kit (Promega) according to the manufacturer's protocol. The luminescence signal of treated samples was normalized to DMSO control, and data were analyzed using a 4-parameter logistic model to calculate IC50 values.

[3] = SOS-mediated nucleotide exchange

Chain of KRAS G12C (P01116 other isoform, or with tags, fused parts or gaps G12C/C118A): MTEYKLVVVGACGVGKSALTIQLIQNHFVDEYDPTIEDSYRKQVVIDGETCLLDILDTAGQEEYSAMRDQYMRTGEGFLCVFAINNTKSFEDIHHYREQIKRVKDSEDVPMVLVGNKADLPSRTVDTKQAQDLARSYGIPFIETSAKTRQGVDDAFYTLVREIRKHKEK

Compound	IC50 ([1]; Homo sapiens, A549, 72 h) [nM]	IC50 (KRAS G12C; [3]) [nM]	IC50 ([2]; Homo sapiens, MIA PaCa-2, 72 h) [nM]	IC50 (KRAS G12C) [nM]	IC50 ([2]; 72 h) [nM]	IC50 ([1]; 72 h) [nM]
C=CC(=O)N1CC2(CCN(c3nc4c(c(-c5c(C)c(C)cc6cnn(C)c56)c3C#N)COC(C)(C)C4)C2)C1 (single isomer, unassigned) [Example 13-92, (P)-7,7-dimethyl-2-(2-(2-propenoyl)-2,6-diazaspiro[3.4]octan-6-yl)-4-(1,5,6-trimethyl-1H-indazol-7-yl)-7,8-dihydro-5H-pyrano[4,3-b]pyridine-3-carbonitrile]	> 5000	13	9			
C=CC(=O)N1CC2(CCN(c3nc4c(c(-c5c(C)ccc6[nH]ncc56)c3C)CCN(C(C)C)C4)C2)C1 (single isomer, unassigned) [Example 18-19, (P)-1-(6-(3-methyl-4-(5-methyl-1H-indazol-4-yl)-7-(2-propanyl)-5,6,7,8-tetrahydro-1,7-naphthyridin-2-yl)-2,6-diazaspiro[3.4]octan-2-yl)-2-propane-1-one]	> 25000			131	56	
C=CC(=O)N1CC2(CCN(c3nc4c(c(-c5cc(C(F)F)ccc5Cl)c3C#N)CCN(c3scnc3C)C4)C2)C1 [Example 23-61, 4-(2-chloro-5-(difluoromethyl)phenyl)-7-(4-methyl-1,3-thiazol-5-yl)-2-(2-(2-propenoyl)-2,6-diazaspiro[3.4]octan-6-yl)-5,6,7,8-tetrahydro-1,7-naphthyridine-3-carbonitrile]	12400		1910	103		
C=CC(=O)N1CC2(CCN(c3nc4c(c(-c5cc(O)ccc5Cl)n3)CCC(c3scnc3C)C4)C2)C1 [Example 22-4, 1-(6-((7R)-4-(2-chloro-5-hydroxyphenyl)-7-(4-methyl-1,3-thiazol-5-yl)-5,6,7,8-tetrahydro-2-quinazolinyl)-2,6-diazaspiro[3.4]octan-2-yl)-2-propen-1-one| 1-(6-((7S)-4-(2-chloro-5-hydroxyphenyl)-7-(4-methyl-1,3-thiazol-5-yl)-5,6,7,8-tetrahydro-2-quinazolinyl)-2,6-diazaspiro[3.4]octan-2-yl)-2-propen-1-one]	> 5000		> 5000	222		
C=CC(=O)N1CC2(CCN(c3nc4c(c(-c5cccc(C)c5C)n3)CC[C@@H](c3scnc3C)C4)C2)C1 (single isomer, unassigned) [Example 22-1]	> 5000		585	38		
C=CC(=O)N1CC2(CCN(c3nc4c(c(-c5ncccc5C)c3C#N)CC[C@](C)(c3scnc3C)C4)C2)C1 [Example 23-9, (7S)-7-methyl-4-(3-methyl-2-pyridinyl)-7-(4-methyl-1,3-thiazol-5-yl)-2-(2-(2-propenoyl)-2,6-diazaspiro[3.4]octan-6-yl)-5,6,7,8-tetrahydro-3-quinolinecarbonitrile]	16200		916	531		
C=CC(=O)N1CC2(CCN(c3nc4c(c(-c5cc(O)cc6ccccc56)n3)CCC(C)(C)C4)C2)C1 [Example 1-31, 1-(6-(4-(3-hydroxy-1-naphthalenyl)-7,7-dimethyl-5,6,7,8-tetrahydro-2-quinazolinyl)-2,6-diazaspiro[3.4]octan-2-yl)-2-propen-1-one]	> 5000	75	> 5000			
C=CC(=O)N1CC2(CCN(c3nc4c(c(-c5cccc(O)c5)c3C#N)CCC(c3scnc3C)=C4)C2)C1 [Example 23-55, 4-(3-hydroxyphenyl)-7-(4-methyl-1,3-thiazol-5-yl)-2-(2-(2-propenoyl)-2,6-diazaspiro[3.4]octan-6-yl)-5,6-dihydro-3-quinolinecarbonitrile]	> 5000		2120	120		
C=CC(=O)N1CC2(CCN(c3nc4c(c(-c5ccccc5C)c3C#N)CCC(c3scnc3C)=C4)C2)C1 (single isomer, unassigned) [Example 23-24, (P)-4-(2-methylphenyl)-7-(4-methyl-1,3-thiazol-5-yl)-2-(2-(2-propenoyl)-2,6-diazaspiro[3.4]octan-6-yl)-5,6-dihydro-3-quinolinecarbonitrile]				71	705	> 5000
C=CC(=O)N1CC2(CCN(c3nc4c(c(-c5ncccc5F)c3C#N)CCC(c3scnc3C)=C4)C2)C1 [Example 23-49, 4-(3-fluoro-2-pyridinyl)-7-(4-methyl-1,3-thiazol-5-yl)-2-(2-(2-propenoyl)-2,6-diazaspiro[3.4]octan-6-yl)-5,6-dihydro-3-quinolinecarbonitrile]	> 5000		670	197		
C=CC(=O)N1CC2(CCN(c3nc4c(c(-c5c(C)ccc6cnn(C)c56)c3C#N)[C@@H]3CC[C@H]4C3)C2)C1 (single isomer, unassigned) [Example 14-15]	> 5000	49	68			
C=CC(=O)N1CC2(CCN(c3nc4c(c(-c5cc(O)cc6ncccc56)c3C#N)C[C@H]3C[C@@H]4C3(C)C)C2)C1 [Example 2-42, (1R,9R)-6-(7-hydroxy-5-quinolinyl)-10,10-dimethyl-4-(2-(2-propenoyl)-2,6-diazaspiro[3,4]octan-6-yl)-3-azatricyclo[7.1.1.0^2,7]undeca-2,4,6-triene-5-carbonitrile]	> 5000	28	175			
C=CC(=O)N1CC2(CCN(c3nc4c(c(-c5cc(O)cc6ccccc56)c3C)CCN(C(C)C)C4)C2)C1 [Example 18-3, 1-(6-(4-(3-hydroxy-1-naphthalenyl)-3-methyl-7-(2-propanyl)-5,6,7,8-tetrahydro-1,7-naphthyridin-2-yl)-2,6-diazaspiro[3.4]octan-2-yl)-2-propen-1-one]	> 5000		137	229		
C=CC(=O)N1CC2(CCN(c3nc4c(c(-c5c(C)ccc6cnn(C)c56)c3C#N)C[C@H]3C[C@@H]4C3(C)C)C2)C1 [Example 13-104, (1R,9R)-6-(1,6-dimethyl-1H-indazol-7-yl)-10,10-dimethyl-4-(2-(2-propenoyl)-2,6-diazaspiro[3.4]octan-6-yl)-3-azatricyclo[7.1.1.0^2,7]undeca-2,4,6-triene-5-carbonitrile]	> 5000	97	1340			
C=CC(=O)N1CC2(CCN(c3cc4c(c(-c5cc(O)cc6ccccc56)c3C#N)CCC(C)(C)C4)C2)C1 [Example 2-98, 3′-hydroxy-6,6-dimethyl-3-(2-(2-propenoyl)-2,6-diazaspiro[3,4]octan-6-yl)-5,6,7,8-tetrahydro[1,1′-binaphthalene]-2-carbonitrile]	> 5000	55	110			
C=CC(=O)N1CC2(CCN(c3nc4c(c(-c5c(C)ccc6cnn(C)c56)c3C)CCC(C)(C)C4)C2)C1 (single isomer, unassigned) [Example 2-21, (P)-1-(6-(4-(1,6-dimethyl-1H-indazol-7-yl)-3,7,7-trimethyl-5,6,7,8-tetrahydro-2-quinolinyl)-2,6-diazaspiro[3.4]octan-2-yl)-2-propen-1-one]	> 5000	161	441			
C=CC(=O)N1CC2(CCN(c3nc4c(c(-c5c(Cl)ccc6[nH]ncc56)c3C#N)COC(C)(C)C4)C2)C1 [Example 13-148, 4-(5-chloro-1H-indazol-4-yl)-7,7-dimethyl-2-(2-(2-propenoyl)-2,6-diazaspiro[3.4]octan-6-yl)-7,8-dihydro-5H-pyrano[4,3-b]pyridine-3-carbonitrile]	> 5000	26	103			
C=CC(=O)N1CC2(CCN(c3cc4c(c(-c5c(C)c(Cl)cc6cnn(C)c56)c3C#N)OCCC4)[C@H]2C)C1 [Example 2-107, 8-(5-chloro-1,6-dimethyl-1H-indazol-7-yl)-6-((5S)-5-methyl-2-(2-propenoyl)-2,6-diazaspiro[3.4]octan-6-yl)-3,4-dihydro-2H-chromene-7-carbonitrile]	> 5000	17	7			
C=CC(=O)N1CC2(CCN(c3nc4c(c(-c5c(C)ccc6[nH]ncc56)c3C#N)C3C(C4)C3(C)C)C2)C1 (stereo not drawn) [Example 13-84]	> 5000	108	479			
C=CC(=O)N1CC2(CCN(c3nc4cc(-c5scnc5C)cnc4c(-c4cccc(C)c4C)c3C#N)C2)C1 (single isomer, unassigned) [Example 19-14, (P)-4-(2,3-dimethylphenyl)-7-(4-methyl-1,3-thiazol-5-yl)-2-(2-(2-propenoyl)-2,6-diazaspiro[3.4]octan-6-yl)-1,5-naphthyridine-3-carbonitrile]				38	366	> 5000
C=CC(=O)N1CC2(CCN(c3nc4c(c(-c5cccc6cc(O)ccc56)c3C)CCN(C(C)C)C4)C2)C1 (single isomer, unassigned) [Example 18-4, (P)-1-(6-(4-(6-hydroxy-1-naphthalenyl)-3-methyl-7-(2-propanyl)-5,6,7,8-tetrahydro-1,7-naphthyridin-2-yl)-2,6-diazaspiro[3.4]octan-2-yl)-2-propane-1-one]	> 5000		12	17		
C=CC(=O)N1CC2(CCN(c3nc4cc(-c5scnc5C)cnc4c(-c4ccc(F)cc4F)c3C#N)C2)C1 [Example 19-5, 4-(2,4-difluorophenyl)-7-(4-methyl-1,3-thiazol-5-yl)-2-(2-(2-propenoyl)-2,6-diazaspiro[3.4]octan-6-yl)-1,5-naphthyridine-3-carbonitrile]	> 5000		452	96		
